From patent publication US9220264B2, “Multimeric forms of antimicrobial peptides” (Singapore Health Services Pte Ltd., priority 2008, dated 2015)
Values after ≈ are worked out from the molar mass of the structure shown. Bridge positions count the residues as written; N and C are the ends. Peptide text beside a SMILES is read from it. I, II: the chains in the order shown.

Assays:
Kp ATCC 10031 = assay type: cell-based, Klebsiella pneumoniae; conditions: ATCC 10031, 24 h
Description: The minimum inhibitory concentration (MIC) was determined using a broth microdilution method. Different strains of bacterial cells were grown in Mueller Hinton Broth (MHB) overnight. 100 μl of adjusted inoculum in MHB was added to 100 μl of each dilution of peptide or antibiotics dissolved in the broth, so as to yield a final cell density of 10^5 to 10^6 cfu/ml in each well of a microtitre plate. Additional microtitre plates may be used as necessary, if more wells are required for the assay or duplicate plates are required. The microtitre plates were incubated at 35° C. for 24 h and the absorbance at 600 nm (OD600) was monitored every 30 minutes. […] A positive control well contained the broth and organisms (no peptides/antibiotics), and a negative control well contains only the broth. The MIC of peptides for each clinical isolate or reference organism was recorded as the lowest concentration of peptide/antibiotic that inhibited visible growth of the test organism. […]

LPS = experiment: Competitive inhibition assay: effect of exogenous LPS on inhibitory activity; assay type: cell-based; conditions: peptide at 1×MIC in MHB; compared to B2088; FIG. 10(C)
Description: Effect of LPS and Mg^2+ on MIC: To examine the interaction of peptide and LPS, the concentration of the latter was added exogenously from (0.001-100 mg/ml) in MHB at a peptide concentration of 1×MIC. The % inhibition was estimated and the amount of LPS required for 50% of antibacterial activity (IC50) was determined.

PA 28753 = experiment: Bacterial viability assay (ED50); assay type: cell-based, Pseudomonas aeruginosa; conditions: 10 mM phosphate buffer; 37° C.; 22 h; read-out: ED50 (Effective dose to kill 50% of bacterial cells)
Description: (§1) Cell viability was conducted for two Gram-negative bacteria (Pa 9027 and Pa 27853). The cultures were grown overnight on trypticase soy (TS) agar and a few isolated colonies were inoculated to achieve a turbidity equivalent to 0.5 McFarland standard. The cell concentration was adjusted to 10^6 CFU/ml with 10 mM phosphate buffer and separated into different tubes to get final concentration of 10^5 CFU/ml. The peptides were added to the individual tubes to obtain concentrations of ⅛ MIC, ¼ MIC, ½ MIC, 1 MIC, 2 MIC and 4 MIC. The tubes were incubated at 37° C. for 22 h. Serial dilution was performed and 100 μL of the suspension was aliquot onto Mueller Hinton Agar (MHA) plate. The plates were incubated for 24 h at 37° C. for colony counting. Positive control was performed at Oh and 22h.

PA 9027 = experiment: Bacterial viability assay (ED50); assay type: cell-based, Pseudomonas aeruginosa
Description: as §1

P. aeruginosa = experiment: Time-kill kinetics assay; assay type: cell-based, Pseudomonas aeruginosa; conditions: both Pseudomonas strains; 1× and 2×MIC; USP phosphate buffer pH 7.2; 35° C.; FIG. 12
Description: The kinetics of bactericidal action was performed by the assay reported before. Briefly, few colonies of overnight grown P. aeruginosa strains were collected from tryptic soy agar plate and suspended in US pharmacopeia phosphate buffer (pH 7.2). The suspension was adjusted to an initial inoculum of 10^6 CFU/mL and incubated with various concentrations of B2088 and B2088—99 at 35° C. 0.1 ml aliquots were withdrawn at various time intervals, diluted 10^2-10^4 fold using the same buffer, plated on tryptic soy agar plates and incubated at 35° C. The colonies were counted after 24 h incubation and expressed as CFU/ml. Buffer without peptides served as a positive control and % bacterial viability is estimated using the following equation: Bacterial viability=1−(CFU/mL)peptide/(CFU/mL)control*100

P. aeruginosa ATCC 9027 = experiment: Outer membrane (OM) permeability assay (NPN uptake); assay type: cell-based, Pseudomonas aeruginosa; conditions: 5 mM HEPES buffer pH 7.2; 10 μM NPN; FIG. 13
Description: The membrane impermeable probe N-phenyl-1-naphthyl amine (NPN) was used to probe the OM permeability of peptides. An overnight culture of P. aeruginosa ATCC 9027 was harvested by centrifugation (3000 rpm, 4° C.). The pellet was washed 2 times and resuspended in 5 mM HEPES buffer (pH 7.2) to OD600 of 0.4. The cells were placed in a 10 mm stirred cuvette and NPN was added to a final concentration of 10 μM. Appropriate concentrations of B2088 was added and the increase in fluorescence intensity was monitored on a Quanta Master fluorescence spectrophotometer (Photon Technology International, New Jersey, USA). The excitation and emission wavelengths were set at 350 and 410 nm with slid widths at 2 and 5 nm, respectively. The % NPN uptake was calculated relative to the increase in NPN fluorescence intensity after the addition of 50 μM polymyxin B.
The peptide concentration required to cause 50% increase in the NPN fluorescence intensity (PC50) was measured.

[1] = tested on: human conjunctival epithelial cells; assay type: cell-based
Description: The results are from four independent experiments and data points show the mean and standard deviations. The X axis indicates the peptide concentration in μg/ml and the Y axis indicates the % cell viability. The cytotoxicity of V2 dimer were tested against human conjunctival cells according to the method described in WO 2007/126392 and compared with native hBD3. […] Wildtype hBD3 was cytotoxic at concentrations of about 15 μg/ml, however, the V2 dimer was not cytotoxic at concentrations of 100 μg/ml.

[2] = tested on: Bacillus cereus ATCC 11778; assay type: cell-based
Method in brief: (§2)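 Peptide was diluted twofold in ⅙-strength MHB without Ca^2+ or Mg^2+, then mixed with an equal volume of inoculum in the same broth to give 10^4 to 10^5 CFU/ml. After 16 to 20 hours at 35° C, the lowest concentration inhibiting visible growth was recorded as the MIC.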

[3] = tested on: Candida albicans ATCC10231; assay type: cell-based
Method in brief: as §2

[4] = tested on: Clinical Escherichia coli DB16027 Source: Blood; assay type: cell-based; conditions: Clinical DB16027 Source: Blood
Method in brief: as §2

[5] = tested on: Clinical Escherichia coli DU46381R Source: Urine; assay type: cell-based
Method in brief: as §2

[6] = tested on: Clinical Pseudomonas aeruginosa 07DM 023257 Source: Eye; assay type: cell-based; conditions: Clinical 07DM 023257 Source: Eye
Method in brief: as §2

[7] = tested on: Clinical Pseudomonas aeruginosa 07DM023376 Source: Eye; assay type: cell-based; conditions: Clinical 07DM023376 Source: Eye
Method in brief: as §2

[8] = tested on: Clinical Pseudomonas aeruginosa DM 023104 Source: Eye; assay type: cell-based; conditions: Clinical DM 023104 Source: Eye
Method in brief: as §2

[9] = tested on: Clinical Pseudomonas aeruginosa DM 023155 Source: Eye; assay type: cell-based; conditions: Clinical DM 023155 Source: Eye
Method in brief: as §2

[10] = tested on: Clinical Pseudomonas aeruginosa PAE 230 DR4877/07 Source: Sputum; assay type: cell-based; conditions: Clinical PAE 230 DR4877/07 Source: Sputum
Method in brief: as §2

[11] = tested on: Clinical Pseudomonas aeruginosa PAE 239 DM5790/07 Source: Wound; assay type: cell-based; conditions: Clinical PAE 239 DM5790/07 Source: Wound
Method in brief: as §2

[12] = tested on: Clinical Pseudomonas aeruginosa PAE 240 DU14476/07 Source: Urine; assay type: cell-based; conditions: Clinical PAE 240 DU14476/07 Source: Urine
Method in brief: as §2

[13] = tested on: Clinical Pseudomonas aeruginosa PAE 249 DM15013 Source: Wound; assay type: cell-based; conditions: Clinical PAE 249 DM15013 Source: Wound
Method in brief: as §2

[14] = tested on: Clinical Staphylococcus aureus DM4001 Source: Eye; assay type: cell-based
Method in brief: as §2

[15] = tested on: Escherichia coli ATCC25922; assay type: cell-based
Method in brief: as §2

[16] = tested on: Fusarium solani ATCC 36031; assay type: cell-based
Method in brief: as §2

[17] = tested on: Methicillin-resistant staphylococcus aureus (MRSA) DM09808R Source: Eye; assay type: cell-based; conditions: Methicillin-resistant DM09808R Source: Eye
Method in brief: as §2

[18] = tested on: Pseudomonas aeruginosa ATCC 27853; assay type: cell-based
Method in brief: as §2

[19] = tested on: Clinical Cadida albicans DF2672R Source: Urine; assay type: cell-based, Candida albicans
Description: MICs was determined by broth macrodilution method modified from that described by the National Committee for Clinical Laboratory Standards (NCCL). The Mueller Hinton Broth (MHB) at ⅙ strength and without addition of Ca^2+ and Mg^2+ was used for dilution. Serial twofold dilutions of V2 dimer solution was prepared in MHB (⅙ strength) in test tubes. 1 ml of inoculum of test organisms in MHB (⅙ strength) was added to 1 ml of each dilution of V2 dimer to yield as final concentration of 10^4 to 10^5 colony forming units/ml in each test tube. The tubes were incubated at 35° C. for 16 to 20 hours. A positive control containing only the broth and organism, and a negative control tube containing only the broth were also incubated in parallel to the test samples. The above was repeated for each different test organism in separate experiments. The MIC of V2 dimer peptide for each clinical isolate or reference organism was read as the lowest concentration of peptide that inhibited visible growth of the test organism.
The MIC was also determined for other peptides and compared to gentamicin.

Structure (SMILES): N=C(N)NCCC[C@H](NC(=O)CNC(=O)CNC(=O)[C@H](CCCCN)NC(=O)[C@H](CCCNC(=N)N)NC(=O)CNC(=O)[C@@H](N)CCCNC(=N)N)C(=O)N[C@@H](CCCNC(=N)N)C(=O)NCCCC[C@H](NC(=O)[C@H](CCCNC(=N)N)NC(=O)[C@H](CCCNC(=N)N)NC(=O)CNC(=O)CNC(=O)[C@H](CCCCN)NC(=O)[C@H](CCCNC(=N)N)NC(=O)CNC(=O)[C@@H](N)CCCNC(=N)N)C(=O)N[C@@H](CCCCN)C(=O)O [B2088_99, (RGRKGGRR)2KK] (I: H-RGRKGGRRKK-OH / II: H-RGRKGGRR; amide I:9-II:C; N-terminus assumed)
- Minimum inhibitory concentration (MIC) (Kp ATCC 10031): 1.5 µM (≈ 3.18 µg/mL)
- concentration of LPS to suppress the inhibitory activity (LPS): higher concentration of LPS
- EC50 (PA 28753): 480 ± 30 nM
- EC50 (PA 9027; 10 mM phosphate buffer, 37° C., 22 h, read-out: ED50 (Effective dose to kill 50% of bacterial cells)): 330 ± 50 nM
- ED50 compared with B2088 (PA 9027; Pa 9027 and Pa 27853, Table 22 and FIG. 11): two times lower
- kill kinetics (P. aeruginosa): faster kill kinetics
- PC50 (peptide concentration to cause 50% increase in NPN fluorescence intensity) (P. aeruginosa ATCC 9027): higher than B2088

Structure (SMILES): CC(C)[C@H](NC(=O)[C@H](CCCCN)NC(=O)[C@H](CCCNC(=N)N)NC(=O)CNC(=O)[C@@H](N)CCCNC(=N)N)C(=O)N[C@H](C(=O)N[C@@H](CCCNC(=N)N)C(=O)N[C@@H](CCCNC(=N)N)C(=O)NCCCC[C@H](NC(=O)[C@H](CCCNC(=N)N)NC(=O)[C@H](CCCNC(=N)N)NC(=O)[C@@H](NC(=O)[C@@H](NC(=O)[C@H](CCCCN)NC(=O)[C@H](CCCNC(=N)N)NC(=O)CNC(=O)[C@@H](N)CCCNC(=N)N)C(C)C)C(C)C)C(=O)N[C@@H](CCCCN)C(=O)O)C(C)C [V2 dimer, (SEQ ID NO: 44)2KK] (I: H-RGRKVVRRKK-OH / II: H-RGRKVVRR; amide I:9-II:C)
- cytotoxicity in comparison with native hBD3 [1]: does not show cytotoxicity
- MIC [2]: 12.5 µg/mL (≈ 5.46 µM)
- MIC [3]: 12.5 µg/mL (≈ 5.46 µM)
- MIC [4]: 6.25 µg/mL (≈ 2.73 µM)
- MIC [5]: 6.25 µg/mL (≈ 2.73 µM)
- MIC [6]: 12.5 µg/mL (≈ 5.46 µM)
- MIC [7]: 12.5 µg/mL (≈ 5.46 µM)
- MIC [8]: 12.5 µg/mL (≈ 5.46 µM)
- MIC [9]: 12.5 µg/mL (≈ 5.46 µM)
- MIC [10]: 12.5 µg/mL (≈ 5.46 µM)
- MIC [11]: 12.5 µg/mL (≈ 5.46 µM)
- MIC [12]: 6.25 µg/mL (≈ 2.73 µM)
- MIC [13]: 6.25 µg/mL (≈ 2.73 µM)
- MIC [14]: 12.5 µg/mL (≈ 5.46 µM)
- MIC [15]: 12.5 µg/mL (≈ 5.46 µM)
- MIC [16]: 25 µg/mL (≈ 10.9 µM)
- MIC [17]: 12.5 µg/mL (≈ 5.46 µM)
- MIC [18]: 12.5 µg/mL (≈ 5.46 µM)
- MIC [19]: 12.5 µg/mL (≈ 5.46 µM)
- Minimum inhibitory concentration (MIC) (Kp ATCC 10031): 1.4 µM (≈ 3.21 µg/mL)
